“Also recorded” adds a separate entry of the source. Like-named read-outs stand apart in the source and are kept apart here.
Key:
[1] = Flow cytometric permeabilization of negatively charged liposomes to calcium; conditions: for permeabilization of negatively charged liposomes to calcium: phosphatidylserine liposomes, Fluo-3, flow cytometry
Description: To improve the quantitative aspect of studying the permeabilization of liposomes by […], we developed a flow cytometric technique which allowed us to estimate the number of channel-forming units in the solutions of peptide (Zaretsky and Zaretskaia 2020). This number appears extremely small compared to the total amount of peptide. In model conditions, one channel is formed out of approximately 10^12 molecules of Aβ25-35. The low ratio of channels created by the peptide would not allow for the studying of channel formation using typical methods of protein biology, such as spectroscopy or NMR, for the reason that the signal of interest being too low. Even though the proportion of channels is small, when the peptide was added in micromolar concentrations, thousands of permeabilized vesicles could be observed, which makes the power of channel formation biologically relevant.
(§1) The figure is a composite of data which was presented and analyzed in detail in (Zaretsky and Zaretskaia 2020, Zaretsky and Zaretskaia 2020). Liposomes (400 nm) were made of either phosphatidylserine (A-E, negatively charged lipid) or phosphatidylcholine (F-H, neutral lipid) with added DiD and were extruded in the Ca-free buffer containing 1 mM Fluo-3. After the addition of calcium, aliquots of peptide were added. Ionomycin was used as a positive control. Fluorescence of liposomes was analyzed using a flow cytometer. Each dot at the graph represent a single liposome registered in the flow. The intensity of DiD fluorescence characterizes the amount of membrane material in the liposome, while the fluorescence of Fluo-3 depends on the intraliposomal presence of calcium. […] The liposomes inside rectangle (area R1) are permeabilized, and the number of liposomes which were counted to be within the area is shown.

[2] = tested on: lysosomes of cells loaded with Lucifer Yellow; conditions: 20 hours incubation; Ji, Miranda et al. 2002; cited from earlier work
[3] = tested on: Aβ-induced apoptosis in the brain; conditions: rat brain, cited from earlier work; for effect on Aβ-induced apoptosis (TUNEL) / effect on accumulation of Aβ immunoreactivity / amyloid: simultaneous i.c.v. infusion with Aβ; for effect on apoptosis by the inhibitor itself (spontaneous apoptosis): without Aβ, TUNEL
[4] = Flow cytometric permeabilization of neutral liposomes to calcium; conditions: phosphatidylcholine liposomes, Fluo-3, flow cytometry
Protocol: as §1

[5] = cited from earlier work
[6] = target: amyloid channels (Homo sapiens, UniProt P05067); conditions: cited from earlier work
[7] = tested on: Aβ1-42-induced drop of cell survival; conditions: Tizon, Ribe et al. 2010; cited from earlier work
[8] = tested on: 15 cells derived from pancreatic islets of Langerhans; conditions: cited from earlier work; for effect on beta-amyloid-induced drop in cell viability: MTT, stated for both cell lines
[9] = tested on: 15 cells derived from pancreatic islets of Langerhans; conditions: cited from earlier work
[10] = tested on: Aβ1-42 toxicity; conditions: cited from earlier work
[11] = study of Aksenov, Aksenova et al. 1996

amyloid channels, sequence (P05067 672-713 limits assumed): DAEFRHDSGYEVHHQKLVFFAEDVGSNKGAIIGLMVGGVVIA

Molecule: Aβ1-42: full-length amyloid peptide
- permeabilization of negatively charged liposomes to calcium [1]: ineffective in the permeabilization of the membranes; also recorded: does not permeabilize liposomal membranes
- pattern of Lucifer Yellow fluorescence in cells (lysosomal permeabilization) [2]: diffuse intracellular pattern of fluorescence

Molecule: aprotinin
- effect on Aβ-induced apoptosis (TUNEL) [3]: prevented Aβ-induced apoptosis
- effect on accumulation of Aβ immunoreactivity / amyloid [3]: did not exacerbate intracellular accumulation of amyloid
- effect on apoptosis by the inhibitor itself (spontaneous apoptosis) [3]: tends to decrease even spontaneously occurring apoptosis

Molecule: Aβ25-35: positively charged short channel-forming fragment of beta-amyloid (GSNKGAIIGLM; Amyloid-beta protein 42; UniProt P05067 696-706, looked up, fragment)
- number of peptide molecules out of which one channel is formed ([1]; model conditions): approximately 10^12 molecules
- permeabilization of negatively charged liposomes to calcium [1]: creates multiple liposomes permeable to calcium
- permeabilization of neutral liposomes to calcium [4]: does not permeabilize liposomes; also recorded: not permeabilized
- percentage of channels with a conductance ([5]; acidic pH (pH 5.0), 20 μM peptide): more than 30%
- conductance of formed channels ([5]; upper end of conductance): up to 1 nS

Molecule: Aβ22-35: longer beta-amyloid fragment without positive overall charge, non-channel-forming (EDVGSNKGAIIGLM; Amyloid-beta protein 42; UniProt P05067 693-706, looked up, fragment)
- permeabilization of negatively charged liposomes to calcium [1]: does not create a noticeable number of channels; also recorded: does not permeabilize liposomes

Molecule: NC(CO)(CO)CO [tromethamine]
- blockade of smaller amyloid channels ([6]; channels <400 pS): effectively blocked
- blockade of giant amyloid channels ([6]; super-high conductance channels >1 nS): less effective

Molecule: C[C@H](CCC(=O)O)C[C@H](C)C[C@H](C)C(=O)/C=C(\O)[C@H](C)C[C@H](C)C/C=C/[C@@H](C)[C@@H](O)[C@@H](C)[C@@H](O)C[C@@H]1CC[C@@](C)([C@H]2CC[C@@](C)([C@@H](C)O)O2)O1 [ionomycin]
- permeabilization of negatively charged liposomes to calcium [1]: permeabilizes liposomes
- permeabilization of neutral liposomes to calcium [4]: permeabilizes thousands of liposomes

Molecule: CC(=O)N[C@@H](CC(C)C)C(=O)N[C@@H](CC(C)C)C(=O)N[C@H](C=O)CCCNC(=N)N [leupeptin]
- effect on Aβ-induced apoptosis (TUNEL) [3]: promoted apoptosis
- effect on accumulation of Aβ immunoreactivity / amyloid [3]: promoted
- effect on apoptosis by the inhibitor itself (spontaneous apoptosis) [3]: tends to increase apoptosis by itself

B1: cystatin C (protein, UniProt P01034 27-146, looked up)
Cystatin-C: SSPGKPPRLVGGPMDASVEEEGVRRALDFAVGEYNKASNDMYHSRALQVVRARKQIVAGVNYFLDVELGRTTCTKTQPNLDNCPFHDQPHLKRKAFCSFQIYAVPWQGTMTLSKSTCQDA
- effect on drop of cell survival induced by Aβ1-42 [7]: prevented the drop of cell survival

B2: α1-anti-chymotrypsin (protein, UniProt P01011 24-423, looked up)
Alpha-1-antichymotrypsin: HPNSPLDEENLTQENQDRGTHVDLGLASANVDFAFSLYKQLVLKAPDKNVIFSPLSISTALAFLSLGAHNTTLTEILKGLKFNLTETSEAEIHQSFQHLLRTLNQSSDELQLSMGNAMFVKEQLSLLDRFTEDAKRLYGSEAFATDFQDSAAAKKLINDYVKNGTRGKITDLIKDLDSQTMMVLVNYIFFKAKWEMPFDPQDTHQSRFYLSKKKWVMVPMMSLHHLTIPYFRDEELSCTVVELKYTGNASALFILPDQDKMEEVEAMLLPETLKRWRDSLEFREIGELYLPKFSISRDYNLNDILLQLGIEEAFTSKADLSGITGARNLAVSQVVHKAVLDVFEEGTEASAATAVKITLLSALVETRTIVRFNRPFLMIIVPTDTQNIFFMSKVTNPKQA
- effect on beta-amyloid-induced drop in cell viability [8]: can protect against Aβ-induced drop in cell viability
- effect on beta-amyloid-induced drop in cell viability ([8]; listed as α1-anti-chymotrypsin): prevented
- effect of further increase of concentration on protection against beta-amyloid ([8]; above optimal dose, both cell lines): disappearance of protection
- protection against beta-amyloid-induced drop in cell viability ([8]; in some conditions, stated for both cell lines (15 cells, cortical cultures)): ≤ 100%
- effect on amylin-induced drop in cell viability ([9]; MTT, listed as anti-chymotrypsin): prevent amylin-induced cellular toxicity
- effect on amylin-induced drop in cell viability ([9]; MTT, listed as α1-anti-chymotrypsin): prevented
- protection against amylin ([9]; MTT): < 100%
- effect of further increase of concentration on protection against amylin ([9]; above optimal dose): significantly decreased the protective effect
- effect on Aβ1-42 toxicity [10, 11]: attenuated Aβ1-42 toxicity
- effect on fibril formation [10, 11]: without affecting fibril formation
- effect on Aβ toxicity ([10]; study of Ma, Brewer et al. 1996): not effective
